The values below come from paper PMC7658267, “Effects of CYP46A1 Inhibition on Long-Term-Depression in Hippocampal Slices ex vivo and 24S-Hydroxycholesterol Levels in Mice in vivo” (Frontiers in Molecular Neuroscience, 2020).

In experiment [1] the target is T1, CYP46A1 (Homo sapiens, UniProt Q9Y6A2). Nature of the experiment: turnover to 24-hydroxycholesterol by human CYP46A1 microsomes, LC-MS/MS. The experiment is classed as biochemical.
The target in experiment [2] is T1, CYP46A1. Nature of the experiment: recombinant human CYP46A1 microsomes, cholesterol to 24-hydroxycholesterol, LC-MS/MS ([…] with testosterone as substrate). Type of experiment: biochemical.

Structures are written as SMILES.

T1 sequence (Q9Y6A2 whole entry): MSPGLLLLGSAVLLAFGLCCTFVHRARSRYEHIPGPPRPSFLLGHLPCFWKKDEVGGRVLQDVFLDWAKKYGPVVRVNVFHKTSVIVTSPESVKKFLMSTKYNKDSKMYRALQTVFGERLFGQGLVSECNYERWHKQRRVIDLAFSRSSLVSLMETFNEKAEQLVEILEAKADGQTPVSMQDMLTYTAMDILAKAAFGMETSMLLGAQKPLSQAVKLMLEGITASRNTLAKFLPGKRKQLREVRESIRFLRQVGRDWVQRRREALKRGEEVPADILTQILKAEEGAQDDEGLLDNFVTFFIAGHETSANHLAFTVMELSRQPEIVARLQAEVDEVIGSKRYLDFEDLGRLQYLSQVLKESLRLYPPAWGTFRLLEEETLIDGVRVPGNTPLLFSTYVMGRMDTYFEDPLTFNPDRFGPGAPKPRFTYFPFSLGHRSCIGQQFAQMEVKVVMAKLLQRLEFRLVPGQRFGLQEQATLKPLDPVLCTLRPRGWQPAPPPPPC

Turning to `CC(C)CCC[C@@H](C)[C@H]1CC[C@H]2[C@@H]3CC=C4C[C@@H](O)CC[C@]4(C)[C@H]3CC[C@]12C` [cholesterol], the “turnover to 24-hydroxycholesterol by human CYP46A1 microsomes, LC-MS/MS” value in experiment [1] was “We also developed an in vitro assay using cholesterol as a substrate”. With `C[C@@H](c1ncncc1F)[C@](O)(Cn1cncn1)c1ccc(F)cc1F` [Voriconazole], the IC50 in experiment [2] was 12.2 µM.

As usually defined, the IC50 is the concentration that gives 50% inhibition.
